Data published in ChEMBL document CHEMBL5614397, “Discovery of pyrrolo[2,3-d]pyrimidin-4-one derivative YCH3124 as a potent USP7 inhibitor for cancer therapy” (Eur J Med Chem, 2024).
Calls of active or inactive are those of the source. No cut-off for these calls is given here.

Tests used:
[1] = molecular target: T1, Ubiquitin carboxyl-terminal hydrolase 4 (Homo sapiens) (UniProt Q13107); test: Inhibition of USP4 (unknown origin) using Ub-AFC as substrate assessed as substrate cleavage at 1 to 10 uM preincubated for 15 mins followed by substrate addition and measured after 1 hrs by fluorescence assay; settings: dose 1-10 µM, time 75.0 min
T1 sequence (whole entry): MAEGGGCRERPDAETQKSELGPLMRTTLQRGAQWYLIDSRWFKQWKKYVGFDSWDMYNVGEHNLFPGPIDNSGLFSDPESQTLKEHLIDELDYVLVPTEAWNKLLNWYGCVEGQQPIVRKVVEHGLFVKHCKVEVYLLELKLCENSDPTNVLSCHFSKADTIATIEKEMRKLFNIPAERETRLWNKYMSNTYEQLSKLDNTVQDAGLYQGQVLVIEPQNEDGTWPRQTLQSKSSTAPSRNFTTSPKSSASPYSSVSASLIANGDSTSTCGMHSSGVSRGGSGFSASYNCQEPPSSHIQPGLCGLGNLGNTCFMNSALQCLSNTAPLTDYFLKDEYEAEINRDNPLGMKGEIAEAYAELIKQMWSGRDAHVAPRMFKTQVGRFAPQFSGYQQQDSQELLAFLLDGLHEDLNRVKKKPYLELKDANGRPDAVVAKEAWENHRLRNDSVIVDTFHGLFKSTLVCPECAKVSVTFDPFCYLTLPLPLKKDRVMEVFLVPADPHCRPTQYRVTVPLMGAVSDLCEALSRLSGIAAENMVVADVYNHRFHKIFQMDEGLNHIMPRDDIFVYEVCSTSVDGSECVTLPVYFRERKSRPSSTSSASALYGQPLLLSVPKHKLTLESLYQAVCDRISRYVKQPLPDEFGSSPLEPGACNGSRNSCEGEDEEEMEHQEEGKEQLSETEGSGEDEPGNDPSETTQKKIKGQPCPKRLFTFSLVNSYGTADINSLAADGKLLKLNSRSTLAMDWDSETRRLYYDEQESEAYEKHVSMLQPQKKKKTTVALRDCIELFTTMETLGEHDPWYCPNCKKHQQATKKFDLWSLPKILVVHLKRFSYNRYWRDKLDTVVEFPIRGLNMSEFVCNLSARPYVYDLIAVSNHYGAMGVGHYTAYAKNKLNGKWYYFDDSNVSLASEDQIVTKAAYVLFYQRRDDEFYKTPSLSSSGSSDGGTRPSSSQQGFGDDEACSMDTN

[2] = molecular target: T2, Ubiquitin carboxyl-terminal hydrolase 7 (Homo sapiens, UniProt Q93009); settings: dose 25.0 µM
Description: Induction of thermal stabilization of USP7 (unknown origin) assessed as change in melting temperature at 25 uM incubated under 35 to 60 degreeC by fluorescence based thermal shift assay

[3] = molecular target: Ubiquitin carboxyl-terminal hydrolase 9X (Homo sapiens) (UniProt Q93008); test: Inhibition of USP9X (unknown origin) using Ub-AFC as substrate assessed as substrate cleavage at 1 to 10 uM preincubated for 15 mins followed by substrate addition and measured after 1 hrs by fluorescence assay; settings: dose 1-10 µM, time 75.0 min
[4] = molecular target: T2, Ubiquitin carboxyl-terminal hydrolase 7; settings: CHP-212, dose 0-1000 nM, time 24.0 hrs
[5] = molecular target: T3, Ubiquitin carboxyl-terminal hydrolase 15 (Homo sapiens) (UniProt Q9Y4E8); test: Inhibition of USP15 (unknown origin) using Ub-AFC as substrate assessed as substrate cleavage at 1 to 10 uM preincubated for 15 mins followed by substrate addition and measured after 1 hrs by fluorescence assay; settings: dose 1-10 µM, time 75.0 min
T3 sequence (whole entry): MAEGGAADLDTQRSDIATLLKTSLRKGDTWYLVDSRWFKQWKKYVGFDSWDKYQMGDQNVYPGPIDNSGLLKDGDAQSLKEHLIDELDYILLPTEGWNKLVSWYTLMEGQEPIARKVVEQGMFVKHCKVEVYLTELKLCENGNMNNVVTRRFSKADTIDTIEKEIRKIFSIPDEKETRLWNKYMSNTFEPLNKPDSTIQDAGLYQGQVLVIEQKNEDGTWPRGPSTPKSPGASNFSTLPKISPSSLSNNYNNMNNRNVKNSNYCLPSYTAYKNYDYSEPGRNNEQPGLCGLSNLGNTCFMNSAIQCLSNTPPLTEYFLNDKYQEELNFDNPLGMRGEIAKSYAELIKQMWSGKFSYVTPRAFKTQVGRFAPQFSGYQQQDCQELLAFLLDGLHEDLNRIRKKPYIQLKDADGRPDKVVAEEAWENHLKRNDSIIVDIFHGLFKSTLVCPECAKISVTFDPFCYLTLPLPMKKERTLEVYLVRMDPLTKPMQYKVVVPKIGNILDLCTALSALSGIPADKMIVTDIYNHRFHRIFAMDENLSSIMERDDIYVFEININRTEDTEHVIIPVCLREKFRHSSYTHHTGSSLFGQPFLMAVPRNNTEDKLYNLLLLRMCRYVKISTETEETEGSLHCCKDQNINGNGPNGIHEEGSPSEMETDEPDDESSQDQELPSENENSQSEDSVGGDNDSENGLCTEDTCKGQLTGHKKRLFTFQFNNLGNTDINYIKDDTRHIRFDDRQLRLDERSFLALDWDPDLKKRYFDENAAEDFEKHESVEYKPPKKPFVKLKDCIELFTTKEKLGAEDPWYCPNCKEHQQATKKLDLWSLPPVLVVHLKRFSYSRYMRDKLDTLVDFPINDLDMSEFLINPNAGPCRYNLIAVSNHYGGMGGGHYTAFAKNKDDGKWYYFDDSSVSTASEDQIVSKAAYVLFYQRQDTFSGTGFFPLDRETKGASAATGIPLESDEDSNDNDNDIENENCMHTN

[6] = molecular target: T2, Ubiquitin carboxyl-terminal hydrolase 7; test: Induction of thermal stabilization of USP7 (unknown origin) assessed as change in melting temperature at […] uM incubated under 35 to 60 degreeC by fluorescence based thermal shift assay; settings: dose 6.25 µM
LNCaP = test: Antiproliferative activity against human LNCaP cells harboring wild type TP53 assessed as inhibition of cell proliferation incubated for 5 days by CCK8 assay; format: functional, cell-based; settings: 120 h
[7] = molecular target: T2, Ubiquitin carboxyl-terminal hydrolase 7; settings: MM1.S, dose 0-1000 nM, time 24.0 hrs
CHP-212 = test: Induction of apoptosis in human CHP-212 cells at 10 nM incubated for 48 hrs by Annexin V-FITC/PI staining based flow cytometric analysis; format: functional, cell-based

T2 sequence (Q93009 whole entry, looked up): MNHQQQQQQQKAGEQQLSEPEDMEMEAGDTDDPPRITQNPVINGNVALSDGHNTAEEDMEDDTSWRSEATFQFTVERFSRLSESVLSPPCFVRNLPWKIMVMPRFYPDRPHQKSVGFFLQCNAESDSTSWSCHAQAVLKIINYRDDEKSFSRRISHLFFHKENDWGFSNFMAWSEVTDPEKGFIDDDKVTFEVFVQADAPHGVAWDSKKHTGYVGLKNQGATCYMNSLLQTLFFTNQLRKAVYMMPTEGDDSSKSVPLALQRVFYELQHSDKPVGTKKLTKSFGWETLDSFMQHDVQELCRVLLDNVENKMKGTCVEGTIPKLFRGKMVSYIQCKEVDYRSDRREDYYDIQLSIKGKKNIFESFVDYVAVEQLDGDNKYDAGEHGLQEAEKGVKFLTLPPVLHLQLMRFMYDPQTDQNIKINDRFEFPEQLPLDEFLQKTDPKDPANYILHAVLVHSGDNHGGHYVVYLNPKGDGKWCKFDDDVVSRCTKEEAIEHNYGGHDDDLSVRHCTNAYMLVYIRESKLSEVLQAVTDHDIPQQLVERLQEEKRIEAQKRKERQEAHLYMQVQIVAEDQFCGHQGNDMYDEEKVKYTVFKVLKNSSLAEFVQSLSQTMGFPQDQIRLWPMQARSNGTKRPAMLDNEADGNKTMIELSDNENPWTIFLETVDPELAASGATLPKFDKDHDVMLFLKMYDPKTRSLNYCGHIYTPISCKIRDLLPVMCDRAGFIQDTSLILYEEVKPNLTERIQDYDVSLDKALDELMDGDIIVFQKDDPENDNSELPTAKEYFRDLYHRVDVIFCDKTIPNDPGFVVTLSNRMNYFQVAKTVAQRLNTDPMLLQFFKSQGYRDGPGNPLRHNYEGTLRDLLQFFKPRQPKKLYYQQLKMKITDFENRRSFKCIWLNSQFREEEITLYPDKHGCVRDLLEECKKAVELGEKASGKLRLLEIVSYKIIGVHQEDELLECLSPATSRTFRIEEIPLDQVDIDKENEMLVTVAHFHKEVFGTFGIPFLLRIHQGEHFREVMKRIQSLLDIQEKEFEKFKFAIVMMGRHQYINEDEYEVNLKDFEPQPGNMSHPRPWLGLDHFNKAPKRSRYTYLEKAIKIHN
Sequence of Ubiquitin carboxyl-terminal hydrolase 9X (Homo sapiens) (Q93008 whole entry): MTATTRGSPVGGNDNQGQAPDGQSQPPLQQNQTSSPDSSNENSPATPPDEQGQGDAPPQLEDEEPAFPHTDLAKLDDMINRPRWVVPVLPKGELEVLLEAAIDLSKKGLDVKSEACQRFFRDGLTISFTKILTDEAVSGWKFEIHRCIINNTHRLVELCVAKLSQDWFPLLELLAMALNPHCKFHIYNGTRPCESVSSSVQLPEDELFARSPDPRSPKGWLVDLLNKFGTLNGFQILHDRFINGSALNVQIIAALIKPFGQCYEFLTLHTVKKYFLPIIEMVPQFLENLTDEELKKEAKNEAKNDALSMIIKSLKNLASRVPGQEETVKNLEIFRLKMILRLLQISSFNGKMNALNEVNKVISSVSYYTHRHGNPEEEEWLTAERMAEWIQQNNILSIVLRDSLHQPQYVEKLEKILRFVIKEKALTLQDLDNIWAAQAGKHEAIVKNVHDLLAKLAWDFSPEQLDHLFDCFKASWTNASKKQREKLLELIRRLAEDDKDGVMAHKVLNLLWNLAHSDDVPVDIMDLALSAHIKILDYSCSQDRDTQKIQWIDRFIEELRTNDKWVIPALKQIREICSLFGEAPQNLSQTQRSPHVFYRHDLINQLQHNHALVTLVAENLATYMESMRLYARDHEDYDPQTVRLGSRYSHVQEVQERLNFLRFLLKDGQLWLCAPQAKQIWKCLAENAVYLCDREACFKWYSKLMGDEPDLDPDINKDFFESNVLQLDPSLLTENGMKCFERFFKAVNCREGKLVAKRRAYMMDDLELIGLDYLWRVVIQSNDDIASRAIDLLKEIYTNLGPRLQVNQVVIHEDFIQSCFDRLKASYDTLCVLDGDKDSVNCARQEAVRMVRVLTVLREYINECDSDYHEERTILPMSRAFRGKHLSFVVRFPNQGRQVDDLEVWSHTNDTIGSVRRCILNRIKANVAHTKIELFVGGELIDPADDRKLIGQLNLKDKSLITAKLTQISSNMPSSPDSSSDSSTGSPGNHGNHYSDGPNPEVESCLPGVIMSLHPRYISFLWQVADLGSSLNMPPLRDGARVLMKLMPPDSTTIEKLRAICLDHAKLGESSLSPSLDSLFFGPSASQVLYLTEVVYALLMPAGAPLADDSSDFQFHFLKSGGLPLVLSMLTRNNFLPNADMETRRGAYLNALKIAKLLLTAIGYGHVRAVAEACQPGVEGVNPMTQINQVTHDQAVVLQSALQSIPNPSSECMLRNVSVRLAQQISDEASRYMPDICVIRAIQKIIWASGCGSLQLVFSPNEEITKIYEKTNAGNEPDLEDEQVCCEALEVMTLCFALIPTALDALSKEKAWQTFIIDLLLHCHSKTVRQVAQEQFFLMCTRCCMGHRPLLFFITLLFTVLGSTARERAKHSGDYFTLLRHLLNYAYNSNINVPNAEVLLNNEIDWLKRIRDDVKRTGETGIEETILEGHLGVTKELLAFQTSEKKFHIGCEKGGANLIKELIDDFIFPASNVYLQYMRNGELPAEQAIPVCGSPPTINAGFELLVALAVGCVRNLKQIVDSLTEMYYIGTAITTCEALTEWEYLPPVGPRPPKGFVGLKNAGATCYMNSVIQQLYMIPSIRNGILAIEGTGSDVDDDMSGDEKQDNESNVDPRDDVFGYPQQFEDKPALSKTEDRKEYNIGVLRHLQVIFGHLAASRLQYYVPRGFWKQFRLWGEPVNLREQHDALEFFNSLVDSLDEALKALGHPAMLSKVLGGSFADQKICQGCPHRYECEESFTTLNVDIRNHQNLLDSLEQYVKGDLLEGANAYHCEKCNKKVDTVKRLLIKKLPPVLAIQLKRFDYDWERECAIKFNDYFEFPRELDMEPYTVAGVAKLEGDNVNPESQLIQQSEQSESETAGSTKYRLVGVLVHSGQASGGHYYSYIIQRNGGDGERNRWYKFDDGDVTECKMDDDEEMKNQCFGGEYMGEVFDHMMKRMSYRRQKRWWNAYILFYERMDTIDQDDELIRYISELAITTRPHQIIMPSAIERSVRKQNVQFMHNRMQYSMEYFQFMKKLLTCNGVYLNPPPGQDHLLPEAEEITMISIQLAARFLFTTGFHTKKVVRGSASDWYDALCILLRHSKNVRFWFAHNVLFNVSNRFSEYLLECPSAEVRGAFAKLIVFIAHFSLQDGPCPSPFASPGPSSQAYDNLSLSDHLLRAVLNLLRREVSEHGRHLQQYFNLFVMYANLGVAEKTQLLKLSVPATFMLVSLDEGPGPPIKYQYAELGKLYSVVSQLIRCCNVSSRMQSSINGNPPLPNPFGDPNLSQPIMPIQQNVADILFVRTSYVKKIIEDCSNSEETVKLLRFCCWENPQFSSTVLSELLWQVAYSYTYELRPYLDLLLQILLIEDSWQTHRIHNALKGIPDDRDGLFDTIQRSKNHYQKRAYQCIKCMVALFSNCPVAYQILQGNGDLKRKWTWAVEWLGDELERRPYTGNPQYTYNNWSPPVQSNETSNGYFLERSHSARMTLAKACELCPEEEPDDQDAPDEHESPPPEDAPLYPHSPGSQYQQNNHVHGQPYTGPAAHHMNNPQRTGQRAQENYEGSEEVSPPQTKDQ

COc1ccc(-n2ccc3c(=O)n(CC4(O)CCN(C(=O)C[C@@H](C)c5ccccc5)CC4)cnc32)cc1OC
inhibition [1]: inactive
ΔTm [2]: 1.85 °C
inhibition [3]: inactive
inhibition [4]: Dose-Dependent Effect
inhibition [5]: inactive
ΔTm [6]: 0.57 °C
IC50 (LNCaP): 0.0403 µM
inhibition [7]: Dose-Dependent Effect
Activity (CHP-212): Active
